Reference: US11427552B2, “Heterocyclic compounds useful in the treatment of disease” (EPIGEN BIOSCIENCES, INC., priority 2013, dated 2022)

Target: T1, LPA1R (Homo sapiens, UniProt Q92633)
T1 construct: host or cells: LPA1R expressing cells (Millipore, GPCR Profiler)
Test: LPA1R Ca2+ flux functional assay (antagonist mode, FLIPR)
Assay type: cell-based
Details: inhibition of LPA-stimulated Ca2+ flux, LPA at EC80, LPA1R expressing cells (Millipore); read-out: LPA1 R Antagonist Activity
Method: Inhibition of LPA-stimulated Ca^2+ flux was used to assess compound potency using FLIPR technology in a 96 well plate format. The assay buffer used was a modified Hanks Balanced Salt Solution (HBSS) where HBSS was supplemented to contain 20 mM HEPES and 2.5 mM Probenecid at pH7.4 (Millipore, GPCR Profiler®). LPA1R expressing cells (Millipore) were plated and prepared 24 hours prior to assay of test articles. Ca^2+ ion flux was assessed from fluorescence of a Fluo-based No Wash Ca^2+ dye. Antagonist data are generated from plates with LPA concentrations sufficient to generate 80% efficacy [EC80]. Percentage inhibition was calculated from a reduction of efficacy according to concentration of compounds of Formula I-VI. For dose responses the inhibition data was used to calculate compound IC50. The agonist assay was conducted on a FLIPR^TETRA instrument where the test compound(s), vehicle controls, and reference agonist were added to the assay plate after a fluorescence baseline was established. The agonist assay was a total of 180 seconds and was used to assess each compound's ability to activate each GPCR assayed. Upon completion of the agonist assay, the assay plate was removed from the FLIPR^TETRA and incubated at 25° C. for seven (7) minutes. After the incubation period, the assay plate was placed back in the FLIPR^TETRA and the antagonist assay was initiated. Using EC80 potency values determined during the agonist assay, all pre-incubated sample compound wells were challenged with EC80 concentration of reference agonist after establishment of a fluorescence baseline. The antagonist assay was conducted using the same assay plate that was used for the agonist assay. The antagonist assay was conducted on a FLIPR^TETRA instrument where 9 vehicle controls and EC80 concentration of reference agonist were added to appropriate wells. The antagonist assay was a total of 180 seconds and was used to assess each compound's ability to inhibit each GPCR assayed. All assay plate data were subjected to appropriate baseline corrections. After baseline corrections were applied, maximum fluorescence values were exported and data processed to calculate percentage activation (relative to Emax reference agonist and vehicle control values), percentage inhibition (relative to EC80 and vehicle control values), and additional statistical values (i.e. Z′, percentage variation between replicate data values) to assess the quality of each plate. Where assay plate data were rejected, additional experiments were conducted. All dose response curves were generated using GraphPad Prism. The curves were fit by utilizing “Sigmoidal Dose Response (Variable Slope)” equation where the bottom parameter was fixed to “0.” Where appropriate, the top parameter was fixed to “100” to better predict potency values when a full curve was not generated by the concentrations assayed.

T1 sequence (Q92633 whole entry): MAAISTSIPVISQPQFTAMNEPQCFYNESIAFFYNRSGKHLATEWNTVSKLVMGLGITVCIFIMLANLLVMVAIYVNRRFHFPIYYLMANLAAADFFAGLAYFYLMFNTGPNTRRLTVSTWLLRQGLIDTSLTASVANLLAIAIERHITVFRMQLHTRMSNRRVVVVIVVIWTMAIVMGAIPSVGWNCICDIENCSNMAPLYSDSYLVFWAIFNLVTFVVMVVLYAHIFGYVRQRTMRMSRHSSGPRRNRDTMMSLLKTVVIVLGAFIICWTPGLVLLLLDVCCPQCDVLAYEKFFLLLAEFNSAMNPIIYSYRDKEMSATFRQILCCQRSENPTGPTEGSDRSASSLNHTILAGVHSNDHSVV

Structure (SMILES) | IC50 [µM]
Cc1noc(-c2ccc(C(=O)N[C@H](C(=O)O)c3ccccc3)cc2)c1NC(=O)OC(C)c1ccccc1Cl (mixture of isomers) [Example 3, 2-(S)-(4-{4-[(R,S)-1-(2-Chloro-phenyl)-ethoxycarbonylamino]-3-methyl-isoxazol-5-yl}-benzoylamino) Phenyl Acetic Acid] | > 50
Cc1noc(-c2ccc(C(=O)NC3(C(=O)O)CC3)cc2)c1NC(=O)OC(C)c1ccccc1Cl (stereo not shown) [Example 1, 1-(4-{4-[1-(2-Chloro-phenyl)-ethoxycarbonylamino]-3-methyl-isoxazol-5-yl}-benzoylamino)-cyclopropanecarboxylic Acid] | 1 to 50
Cc1noc(-c2ccc(C(=O)NC3(C(=O)O)Cc4ccccc4C3)cc2)c1NC(=O)OC(C)c1ccccc1Cl (stereo not shown) [Example 2, 2-(4-{4-[1-(2-Chloro-phenyl)-ethoxycarbonylamino]-3-methyl-isoxazol-5-yl}-benzoylamino)-indan-2-carboxylic Acid] | 1 to 50
Cc1noc(-c2ccc(C(=O)N[C@@H](Cc3ccccc3)C(=O)O)cc2)c1NC(=O)O[C@H](C)c1ccccc1 [Example 6, 2(S)-[[4-[3-methyl-4-((R)-1-phenylethoxycarbonylamino)isoxazol-5-yl]benzoyl]amino]-3-phenyl-propanoic Acid] | > 50
Cc1nn(C)c(-c2ccc(C(=O)N[C@H](Cc3ccccc3)C(=O)O)cc2)c1NC(=O)O[C@H](C)c1ccccc1 [Example 7, (R)-2-[[4-[2,5-dimethyl-4-((R)-1-phenylethoxycarbonylamino)pyrazol-3-yl]benzoyl]amino]-3-phenyl-propanoic Acid] | > 50
Cc1c(NC(=O)O[C@H](C)c2ccccc2)c(-c2ccc(C(=O)N[C@H](Cc3ccccc3)C(=O)O)cc2)nn1C [Example 8, (R)-2-[[4-[1,5-dimethyl-4-((R)-1-phenylethoxycarbonylamino)pyrazol-3-yl]benzoyl]amino]-3-phenyl-propanoic Acid] | > 50
Cc1nn(C)c(-c2ccc(C(=O)N[C@H](Cc3ccc(F)cc3)C(=O)O)cc2)c1NC(=O)O[C@H](C)c1ccccc1 [Example 9, (R)-2-[[4-[2,5-dimethyl-4-((R)-1-phenylethoxycarbonylamino)pyrazol-3-yl]benzoyl]amino]-3-(4-fluorophenyl)propanoic Acid] | > 50
Cc1c(NC(=O)O[C@H](C)c2ccccc2)c(-c2ccc(C(=O)N[C@H](Cc3ccc(F)cc3)C(=O)O)cc2)nn1C [Example 10, (R)-2-[[4-[1,5-dimethyl-4-((R)-1-phenylethoxycarbonylamino)pyrazol-3-yl]benzoyl]amino]-3-(4-fluorophenyl)propanoic acid] | > 50
Cc1nn(C)c(-c2ccc(C(=O)N[C@H](Cc3ccc(Br)cc3)C(=O)O)cc2)c1NC(=O)O[C@H](C)c1ccccc1 [Example 11, (R)-3-(4-bromophenyl)-2-[[4-[2,5-dimethyl-4-((R)-1-phenylethoxycarbonyl-amino)pyrazol-3-yl]benzoyl]amino]propanoic Acid] | > 50
Cc1nn(C)c(-c2ccc(C(=O)N[C@H](Cc3ccc(Cl)cc3)C(=O)O)cc2)c1NC(=O)O[C@H](C)c1ccccc1 [Example 13, (R)-3-(4-chlorophenyl)-2-[[4-[2,5-dimethyl-4-((R)-1-phenylethoxycarbonyl-amino)pyrazol-3-yl]benzoyl]amino]propanoic Acid] | > 50
Cc1c(NC(=O)O[C@H](C)c2ccccc2)c(-c2ccc(C(=O)N[C@H](Cc3ccc(Cl)cc3)C(=O)O)cc2)nn1C [Example 14, (R)-3-(4-chlorophenyl)-2-[[4-[1,5-dimethyl-4-((R)-1-phenylethoxycarbonyl-amino)pyrazol-3-yl]benzoyl]amino]propanoic Acid] | > 50
Cc1nn(C)c(-c2ccc(C(=O)N[C@H](Cc3ccc(F)c(F)c3)C(=O)O)cc2)c1NC(=O)O[C@H](C)c1ccccc1 [Example 15, (R)-3-(3,4-difluorophenyl)-2-[[4-[2,5-dimethyl-4-((R)-1-phenylethoxycarbonyl-amino)pyrazol-3-yl]benzoyl]amino]propanoic Acid] | > 50
Cc1c(NC(=O)O[C@H](C)c2ccccc2)c(-c2ccc(C(=O)N[C@H](Cc3ccc(F)c(F)c3)C(=O)O)cc2)nn1C [Example 16, (R)-3-(3,4-difluorophenyl)-2-[[4-[1,5-dimethyl-4-((R)-1-phenylethoxycarbonyl-amino)pyrazol-3-yl]benzoyl]amino]propanoic Acid] | > 50
Cc1noc(-c2ccc(C(=O)N[C@H](Cc3ccccc3)C(=O)O)cc2)c1NC(=O)O[C@@H](C)c1ccccc1 [Example 18, (R)-2-{4-[3-Methyl-4-((S)-1-phenyl-ethoxycarbonylamino)-isoxazol-5-yl]-benzoylamino}-3-phenyl-propionic Acid] | > 50
Cc1noc(-c2ccc(C(=O)N[C@@H](Cc3ccccc3)C(=O)O)cc2)c1NC(=O)O[C@@H](C)c1ccccc1 [Example 19, (S)-2-{4-[3-Methyl-4-((S)-1-phenyl-ethoxycarbonylamino)-isoxazol-5-yl]-benzoylamino}-3-phenyl-propionic Acid] | > 50

The remaining lines, values ahead:

IC50 [µM] | Structure (SMILES)
< 0.3 | Cc1noc(-c2ccc(COC(CC3CC3)C(=O)O)cc2)c1NC(=O)O[C@H](C)c1ccccc1 (mixture of isomers) [Example 44, (RS)-3-Cyclopropyl-2-{4-[3-methyl-4-((R)-1-phenyl-ethoxycarbonylamino)-isoxazol-5-yl]-benzyloxy}-propionic Acid]
< 0.3 | Cc1noc(-c2ccc(COC(Cc3ccc(Cl)cc3)C(=O)O)cc2)c1OC(=O)O[C@H](C)c1ccccc1 (mixture of isomers) [Example 45, (RS)-3-(4-Chloro-phenyl)-2-{4-[3-methyl-4-((R)-1-phenyl-ethoxycarbonyloxy)-isoxazol-5-yl]-benzyloxy}-propionic Acid]
0.3 to 1 | Cc1noc(-c2ccc(C(=O)NC(Cc3ccccc3)C(=O)O)cc2)c1NC(=O)OC(C)c1ccccc1Cl [Example 4, 2-(R)-(4-{4-[(R,S)-1-(2-Chloro-phenyl)-ethoxycarbonylamino]-3-methyl-isoxazol-5-yl}-benzoylamino) Phenyl Propanoic Acid]
< 0.3 | Cc1noc(-c2ccc(C(=O)N[C@H](Cc3ccccc3)C(=O)O)cc2)c1NC(=O)O[C@H](C)c1ccccc1 [Example 5, 2(R)-[[4-[3-methyl-4-((R)-1-phenylethoxycarbonylamino)isoxazol-5-yl]benzoyl]amino]-3-phenyl-propanoic Acid]
< 0.3 | Cc1noc(-c2ccc(C(=O)N[C@H](CC3CC3)C(=O)O)cc2)c1NC(=O)O[C@H](C)c1ccccc1Cl [Example 17, (R)-2-(4-{4-[(R)-1-(2-chloro-phenyl)-ethoxycarbonylamino]-3-methyl-isoxazol-5-yl}-benzoylamino)-3-cyclopropyl-propionic Acid]
< 0.3 | Cc1noc(-c2ccc(C(=O)N[C@H](Cc3ccc(F)cc3)C(=O)O)cc2)c1NC(=O)O[C@H](C)c1ccccc1Cl [Example 21, (R)-2-(4-{4-[(R)-1-(2-Chloro-phenyl)-ethoxycarbonylamino]-3-methyl-isoxazol-5-yl}-benzoylamino)-3-(4-fluoro-phenyl)-propionic Acid]
< 0.3 | Cc1noc(-c2ccc(C(=O)N[C@H](Cc3ccc(Cl)cc3)C(=O)O)cc2)c1NC(=O)O[C@H](C)c1ccccc1Cl [Example 22, (R)-3-(4-Chloro-phenyl)-2-(4-{4-[(R)-1-(2-chloro-phenyl)-ethoxycarbonylamino]-3-methyl-isoxazol-5-yl}-benzoylamino)-propionic Acid]
< 0.3 | Cc1noc(-c2ccc(C(=O)N[C@H](Cc3ccc(F)c(F)c3)C(=O)O)cc2)c1NC(=O)O[C@H](C)c1ccccc1Cl [Example 23, (R)-2-(4-{4-[(R)-1-(2-Chloro-phenyl)-ethoxycarbonylamino]-3-methyl-isoxazol-5-yl}-benzoylamino)-3-(3,4-difluoro-phenyl)-propionic Acid]
< 0.3 | Cc1noc(-c2ccc(C(=O)N[C@H](Cc3ccccc3Cl)C(=O)O)cc2)c1NC(=O)O[C@H](C)c1ccccc1Cl [Example 24, (R)-3-(2-Chloro-phenyl)-2-(4-{4-[(R)-1-(2-chloro-phenyl)-ethoxycarbonylamino]-3-methyl-isoxazol-5-yl}-benzoylamino)-propionic Acid]
< 0.3 | Cc1noc(-c2ccc(C(=O)N[C@H](Cc3ccc(Br)cc3)C(=O)O)cc2)c1NC(=O)O[C@H](C)c1ccccc1Cl [Example 25, (R)-3-(4-Bromo-phenyl)-2-(4-{4-[(R)-1-(2-chloro-phenyl)-ethoxycarbonylamino]-3-methyl-isoxazol-5-yl}-benzoylamino)-propionic Acid]
